According to PubChem BioAssay (NCI):
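The compound was tested at five concentrations on cells cultured in 96-well plates, with a 48-hour exposure period. Abbreviation: GI50, concentration required for 50% inhibition of growth. The concentration for full growth arrest is given as TGI.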

Columns and labels:
Assay in all cases: inhibition of tumour cell growth, NCI panel, 48 h
786-0 renal = tested on: 786-0 renal
A498 renal = tested on: A498 renal
A549 NSCLC = tested on: A549 NSCLC
ACHN renal = tested on: ACHN renal
BT-549 breast = tested on: BT-549 breast
CAKI-1 renal = tested on: CAKI-1 renal
CCRF-CEM leukemia = tested on: CCRF-CEM leukemia
COLO 205 colon = tested on: COLO 205 colon
DU-145 prostate = tested on: DU-145 prostate
HCC-2998 colon = tested on: HCC-2998 colon
HCT-116 colon = tested on: HCT-116 colon
HCT-15 colon = tested on: HCT-15 colon
HL-60(TB) leukemia = tested on: HL-60(TB) leukemia
HOP-62 NSCLC = tested on: HOP-62 NSCLC
HOP-92 NSCLC = tested on: HOP-92 NSCLC
HS 578T breast = tested on: HS 578T breast
HT29 colon = tested on: HT29 colon
IGROV1 ovarian = tested on: IGROV1 ovarian
K-562 leukemia = tested on: K-562 leukemia
KM12 colon = tested on: KM12 colon
LOX IMVI melanoma = tested on: LOX IMVI melanoma
M14 melanoma = tested on: M14 melanoma
MCF7 breast = tested on: MCF7 breast
MDA-MB-231 breast = tested on: MDA-MB-231 breast
MOLT-4 leukemia = tested on: MOLT-4 leukemia
NCI-H226 lung = tested on: NCI-H226 lung
NCI-H23 lung = tested on: NCI-H23 lung
NCI-H460 lung = tested on: NCI-H460 lung
NCI-H522 lung = tested on: NCI-H522 lung
NCI/ADR-RES ovarian = tested on: NCI/ADR-RES ovarian
OVCAR-3 ovarian = tested on: OVCAR-3 ovarian
OVCAR-4 ovarian = tested on: OVCAR-4 ovarian
OVCAR-5 ovarian = tested on: OVCAR-5 ovarian
OVCAR-8 ovarian = tested on: OVCAR-8 ovarian
PC-3 prostate = tested on: PC-3 prostate
RPMI-8226 leukemia = tested on: RPMI-8226 leukemia
RXF 393 renal = tested on: RXF 393 renal
SF-268 CNS = tested on: SF-268 CNS
SF-295 CNS = tested on: SF-295 CNS
SF-539 CNS = tested on: SF-539 CNS
SK-MEL-2 melanoma = tested on: SK-MEL-2 melanoma
SK-MEL-5 melanoma = tested on: SK-MEL-5 melanoma
SK-OV-3 ovarian = tested on: SK-OV-3 ovarian
SN12C renal = tested on: SN12C renal
SNB-19 CNS = tested on: SNB-19 CNS
SNB-75 CNS = tested on: SNB-75 CNS
SR leukemia = tested on: SR leukemia
SW-620 colon = tested on: SW-620 colon
TK-10 renal = tested on: TK-10 renal
U251 CNS = tested on: U251 CNS
UACC-257 melanoma = tested on: UACC-257 melanoma
UACC-62 melanoma = tested on: UACC-62 melanoma
UO-31 renal = tested on: UO-31 renal

`COc1ccc(/C=C\c2cc(OC)c(OC)c(OC)c2)cc1NC(=O)[C@@H](N)CO` was tested, and the GI50 (786-0 renal) was 18.8 nM, the TGI (786-0 renal) was > 40300 nM and the GI50 (A498 renal) was < 10 nM. The TGI (A498 renal) was < 15.8 nM, the GI50 (A549 NSCLC) was 29.5 nM and the TGI (A549 NSCLC) was > 100000 nM. For the same molecule, the GI50 (ACHN renal) was 26.8 nM, the TGI (ACHN renal) was > 100000 nM and the GI50 (BT-549 breast) was < 13.9 nM. The TGI (BT-549 breast) was 85 nM, the GI50 (CAKI-1 renal) was < 10 nM and the TGI (CAKI-1 renal) was > 100000 nM. The GI50 (CCRF-CEM leukemia) was 26.3 nM, the TGI (CCRF-CEM leukemia) was > 100000 nM and the GI50 (COLO 205 colon) was < 10 nM. The TGI (COLO 205 colon) was 15.3 nM, the GI50 (DU-145 prostate) was 28.8 nM and the TGI (DU-145 prostate) was > 100000 nM. For the same molecule, the GI50 (HCC-2998 colon) was 19.9 nM, the TGI (HCC-2998 colon) was > 100000 nM and the GI50 (HCT-116 colon) was 17.6 nM. The TGI (HCT-116 colon) was > 100000 nM, the GI50 (HCT-15 colon) was 16.5 nM and the TGI (HCT-15 colon) was > 100000 nM. For the same molecule, the GI50 (HL-60(TB) leukemia) was < 17.8 nM, the TGI (HL-60(TB) leukemia) was 758 nM and the GI50 (HOP-62 NSCLC) was 26.7 nM. The TGI (HOP-62 NSCLC) was > 100000 nM, the GI50 (HOP-92 NSCLC) was 10.3 nM and the TGI (HOP-92 NSCLC) was 64500 nM. The GI50 (HS 578T breast) was 30.9 nM, the TGI (HS 578T breast) was > 100000 nM and the GI50 (HT29 colon) was < 17.3 nM. For the same molecule, the TGI (HT29 colon) was 20500 nM, the GI50 (IGROV1 ovarian) was 27.3 nM and the TGI (IGROV1 ovarian) was > 92600 nM. For the same molecule, the GI50 (K-562 leukemia) was < 10 nM, the TGI (K-562 leukemia) was > 100000 nM and the GI50 (KM12 colon) was < 12.9 nM. The TGI (KM12 colon) was > 100000 nM, the GI50 (LOX IMVI melanoma) was 37.6 nM and the TGI (LOX IMVI melanoma) was > 100000 nM. For the same molecule, the GI50 (M14 melanoma) was 12.3 nM, the TGI (M14 melanoma) was > 100000 nM and the GI50 (MCF7 breast) was 20.7 nM. For the same molecule, the TGI (MCF7 breast) was > 100000 nM, the GI50 (MDA-MB-231 breast) was 21.5 nM and the TGI (MDA-MB-231 breast) was > 100000 nM. For the same molecule, the GI50 (MOLT-4 leukemia) was 43.2 nM, the TGI (MOLT-4 leukemia) was > 100000 nM and the GI50 (NCI-H226 lung) was 28.7 nM. The TGI (NCI-H226 lung) was > 100000 nM, the GI50 (NCI-H23 lung) was 33 nM and the TGI (NCI-H23 lung) was > 100000 nM. For the same molecule, the GI50 (NCI-H460 lung) was 32.1 nM, the TGI (NCI-H460 lung) was > 100000 nM and the GI50 (NCI-H522 lung) was < 10 nM. It also gave a TGI (NCI-H522 lung) of 45.7 nM, a GI50 (NCI/ADR-RES ovarian) of 20.5 nM and a TGI (NCI/ADR-RES ovarian) of 245 nM. For the same molecule, the GI50 (OVCAR-3 ovarian) was < 12.2 nM, the TGI (OVCAR-3 ovarian) was 41.5 nM and the GI50 (OVCAR-4 ovarian) was 35.5 nM. The TGI (OVCAR-4 ovarian) was > 100000 nM, the GI50 (OVCAR-5 ovarian) was < 23 nM and the TGI (OVCAR-5 ovarian) was > 100000 nM. For the same molecule, the GI50 (OVCAR-8 ovarian) was 32.8 nM, the TGI (OVCAR-8 ovarian) was > 100000 nM and the GI50 (PC-3 prostate) was 18.8 nM. For the same molecule, the TGI (PC-3 prostate) was > 100000 nM, the GI50 (RPMI-8226 leukemia) was 27.6 nM and the TGI (RPMI-8226 leukemia) was 20800 nM. The GI50 (RXF 393 renal) was < 10 nM, the TGI (RXF 393 renal) was 26700 nM and the GI50 (SF-268 CNS) was 46.2 nM. For the same molecule, the TGI (SF-268 CNS) was > 100000 nM, the GI50 (SF-295 CNS) was < 10 nM and the TGI (SF-295 CNS) was > 100000 nM. It also gave a GI50 (SF-539 CNS) of 14.5 nM, a TGI (SF-539 CNS) of 64.9 nM and a GI50 (SK-MEL-2 melanoma) of 19.8 nM. The TGI (SK-MEL-2 melanoma) was > 100000 nM, the GI50 (SK-MEL-5 melanoma) was < 11.2 nM and the TGI (SK-MEL-5 melanoma) was 36.4 nM. For the same molecule, the GI50 (SK-OV-3 ovarian) was < 12.4 nM, the TGI (SK-OV-3 ovarian) was > 100000 nM and the GI50 (SN12C renal) was 46.8 nM. For the same molecule, the TGI (SN12C renal) was > 100000 nM, the GI50 (SNB-19 CNS) was 43.3 nM and the TGI (SNB-19 CNS) was > 100000 nM. The GI50 (SNB-75 CNS) was < 12.8 nM, the TGI (SNB-75 CNS) was > 66700 nM and the GI50 (SR leukemia) was < 15 nM. The TGI (SR leukemia) was > 100000 nM, the GI50 (SW-620 colon) was 27 nM and the TGI (SW-620 colon) was > 100000 nM. The GI50 (TK-10 renal) was 19300 nM, the TGI (TK-10 renal) was > 100000 nM and the GI50 (U251 CNS) was 16.5 nM. For the same molecule, the TGI (U251 CNS) was > 100000 nM, the GI50 (UACC-257 melanoma) was 27100 nM and the TGI (UACC-257 melanoma) was > 100000 nM. For the same molecule, the TGI (UACC-62 melanoma) was > 100000 nM, the GI50 (UO-31 renal) was 48.6 nM and the TGI (UO-31 renal) was > 69700 nM.
